Experimental data: patent US8835377B2, “Oral delivery of peptide pharmaceutical compositions” (UGP Therapeutics, Inc., priority 2004, dated 2014)

Assay: Pharmacokinetics after oral capsules (sCT plus Dmt-DALDA with citric acid and lauroyl carnitine), non-enteric coated or enteric coated, in fasted beagle dogs (plasma; ELISA for sCT, HPLC-MS for Dmt-DALDA)
Assay type: in vivo
Settings: for AUC / Cmax: normalized to a 1 mg dose; for Tmax / Cmax: beagle, dog, plasma, oral; for plasma peptide concentration normalized to a 1 mg dose: enteric coated capsule
Description: A second series of tests was carried out, as noted above, using beagle dogs. […] In the experiments represented in FIGS. 2A and 2B, size 00 […] capsules were each filled with 758 mg of a powdered blend consisting of citric acid (643 mg), lauroyl carnitine (66 mg), talc (33 mg), salmon calcitonin (sCT) (13 mg) and Dmt-DALDA (2.4 mg). Half of the capsules were coated with an enteric coating solution of L30D-55, while the remaining 50% of the capsules were not coated. Four fasted dogs were each given 1 uncoated capsule, and 2 weeks later they were each given an enteric coated capsule. After administration of each capsule, samples of blood were taken at 15 minute intervals from an indwelling catheter for up to 4 hours. The blood samples were centrifuged and the resulting plasma supernatants were stored frozen at −20° C. The plasma samples were subsequently analyzed for sCT by a direct ELISA, and for Dmt-DALDA by HPLC-mass spectrometry performed as set forth in Wan, H. and Desiderio, D., Quantitation of [DMT^1] DALDA in ovine plasma by on-line liquid chromatography/quadrapole time-of-flight mass spectrometry, Rapid Communications in Mass Spectrometry, 2003; 17, 538-546, the contents of which are incorporated herein by reference.
The results summarized in FIGS. 2A and 2B as plasma peptide concentration normalized to a 1 mg dose as a function of time relative to the average Tmax, (i.e., the time at which the maximum amount of peptide was detected) indicate that both peptides, i.e., sCT and Dmt-DALDA, were detected in dogs given uncoated or enteric coated capsules. […] Table DI (below) sets forth the values upon which the curves in FIGS. 2A and 2B are based. The results are summarized in the tables as plasma peptide concentration normalized to a 1 mg dose as a function of time. Table III, moreover, provides the standard deviations for the data obtained regarding each of the test dogs, which standard deviations are also indicated in FIGS. 2A and 2B.
Table IV (below) summarizes the pharmacokinetic parameters in dogs of orally administered sCT and Dmt-DALDA when administered in non-enteric coated versus enteric coated capsules. Peptide was not detected from 1 dog in each group due to (a) Dog 3 vomiting the uncoated capsule and (b) delayed gastric emptying in Dog 2 provided with an enteric coated capsule. Cmax and AUC are as defined with regard to Table H above.

[1] = Non-Enteric Capsule, Avg (n = 3)

Q: Which results are given for CC(C)C[C@H](NC(=O)[C@H](CCCCN)NC(=O)CNC(=O)[C@H](CC(C)C)NC(=O)[C@@H](NC(=O)[C@@H]1CSSC[C@H](N)C(=O)N[C@@H](CO)C(=O)N[C@@H](CC(N)=O)C(=O)N[C@@H](CC(C)C)C(=O)N[C@@H](CO)C(=O)N[C@@H]([C@@H](C)O)C(=O)N1)C(C)C)C(=O)N[C@@H](CO)C(=O)N[C@@H](CCC(N)=O)C(=O)N[C@@H](CCC(=O)O)C(=O)N[C@@H](CC(C)C)C(=O)N[C@@H](Cc1c[nH]cn1)C(=O)N[C@@H](CCCCN)C(=O)N[C@@H](CC(C)C)C(=O)N[C@@H](CCC(N)=O)C(=O)N[C@H](C(=O)N[C@@H](Cc1ccc(O)cc1)C(=O)N1CCC[C@H]1C(=O)N[C@@H](CCCNC(=N)N)C(=O)N[C@H](C(=O)N[C@@H](CC(N)=O)C(=O)N[C@H](C(=O)NCC(=O)N[C@@H](CO)C(=O)NCC(=O)N[C@H](C(=O)N1CCC[C@H]1C(N)=O)[C@@H](C)O)[C@@H](C)O)[C@@H](C)O)[C@@H](C)O [sCT, salmon calcitonin]?
A: AUC (Enteric Capsule, Avg (n = 3)): 788317 pg/mL-min; AUC (Enteric Capsule, Dog 1): 1178504 pg/mL-min; AUC (Enteric Capsule, Dog 2 (delayed gastric emptying)): 0 pg/mL-min; AUC (Enteric Capsule, Dog 3): 522432 pg/mL-min; AUC (Enteric Capsule, Dog 4): 664016 pg/mL-min; AUC [1]: 69539 pg/mL-min; AUC (Non-Enteric Capsule, Dog 1): 79620 pg/mL-min; AUC (Non-Enteric Capsule, Dog 2): 103772 pg/mL-min; AUC (Non-Enteric Capsule, Dog 3 (vomited capsule)): 0 pg/mL-min; AUC (Non-Enteric Capsule, Dog 4): 25227 pg/mL-min; Tmax (Enteric Capsule, Avg (n = 3)): 105 min; Cmax (Enteric Capsule, Avg (n = 3)): 17.2 ng/mL; Cmax (Enteric Capsule, Dog 1): 25.1 ng/mL; Tmax (Enteric Capsule, Dog 3): 135 min; Cmax (Enteric Capsule, Dog 3): 13.2 ng/mL; Tmax (Enteric Capsule, Dog 4): 120 min; Cmax (Enteric Capsule, Dog 4): 13.1 ng/mL; Tmax [1]: 30 min; Cmax [1]: 2.26 ng/mL; Tmax (Non-Enteric Capsule, Dog 1): 30 min; Cmax (Non-Enteric Capsule, Dog 1): 2.65 ng/mL; Tmax (Non-Enteric Capsule, Dog 2): 30 min; Cmax (Non-Enteric Capsule, Dog 2): 3.15 ng/mL; Tmax (Non-Enteric Capsule, Dog 4): 30 min; Cmax (Non-Enteric Capsule, Dog 4): 0.971 ng/mL; Cmax and AUC, enteric coated capsules versus non enteric-coated capsules (dogs): significantly enhanced; amount of peptide detected in plasma, enteric coated capsules vs non-coated capsules (dogs): nearly eight times as much; time at which the maximum concentration was seen (dogs given coated capsules): 105 min; time at which the maximum concentration was seen (dogs given uncoated capsules): 30 min; plasma peptide concentration normalized to a 1 mg dose (Dog 1, 0 min): 0 pg/mL; plasma peptide concentration normalized to a 1 mg dose (Dog 1, 15 min): 0 pg/mL; plasma peptide concentration normalized to a 1 mg dose (Dog 1, 30 min): 407 pg/mL; plasma peptide concentration normalized to a 1 mg dose (Dog 1, 45 min): 22650 pg/mL; plasma peptide concentration normalized to a 1 mg dose (Dog 1, 60 min): 25136 pg/mL; plasma peptide concentration normalized to a 1 mg dose (Dog 1, 75 min): 6444 pg/mL; plasma peptide concentration normalized to a 1 mg dose (Dog 1, 90 min): 8167 pg/mL; plasma peptide concentration normalized to a 1 mg dose (Dog 1, 105 min): 4344 pg/mL; plasma peptide concentration normalized to a 1 mg dose (Dog 1, 120 min): 3193 pg/mL; plasma peptide concentration normalized to a 1 mg dose (Dog 1, 135 min): 2710 pg/mL; plasma peptide concentration normalized to a 1 mg dose (Dog 1, 150 min): 1706 pg/mL; plasma peptide concentration normalized to a 1 mg dose (Dog 1, 165 min): 1283 pg/mL; plasma peptide concentration normalized to a 1 mg dose (Dog 1, 180 min): 1301 pg/mL; plasma peptide concentration normalized to a 1 mg dose (Dog 1, 195 min): 459 pg/mL; plasma peptide concentration normalized to a 1 mg dose (Dog 1, 210 min): 347 pg/mL; plasma peptide concentration normalized to a 1 mg dose (Dog 2 (delayed gastric emptying), 0 min): 0 pg/mL; plasma peptide concentration normalized to a 1 mg dose (Dog 2 (delayed gastric emptying), 15 min): 0 pg/mL; plasma peptide concentration normalized to a 1 mg dose (Dog 2 (delayed gastric emptying), 30 min): 0 pg/mL; plasma peptide concentration normalized to a 1 mg dose (Dog 2 (delayed gastric emptying), 45 min): 0 pg/mL; plasma peptide concentration normalized to a 1 mg dose (Dog 2 (delayed gastric emptying), 60 min): 0 pg/mL; plasma peptide concentration normalized to a 1 mg dose (Dog 2 (delayed gastric emptying), 75 min): 0 pg/mL; plasma peptide concentration normalized to a 1 mg dose (Dog 2 (delayed gastric emptying), 90 min): 0 pg/mL; plasma peptide concentration normalized to a 1 mg dose (Dog 2 (delayed gastric emptying), 105 min): 0 pg/mL; plasma peptide concentration normalized to a 1 mg dose (Dog 2 (delayed gastric emptying), 120 min): 0 pg/mL; plasma peptide concentration normalized to a 1 mg dose (Dog 2 (delayed gastric emptying), 135 min): 0 pg/mL; plasma peptide concentration normalized to a 1 mg dose (Dog 2 (delayed gastric emptying), 150 min): 0 pg/mL; plasma peptide concentration normalized to a 1 mg dose (Dog 2 (delayed gastric emptying), 165 min): 0 pg/mL; plasma peptide concentration normalized to a 1 mg dose (Dog 2 (delayed gastric emptying), 180 min): 0 pg/mL; plasma peptide concentration normalized to a 1 mg dose (Dog 2 (delayed gastric emptying), 195 min): 0 pg/mL; plasma peptide concentration normalized to a 1 mg dose (Dog 2 (delayed gastric emptying), 210 min): 0 pg/mL; plasma peptide concentration normalized to a 1 mg dose (Dog 3, 0 min): 0 pg/mL; plasma peptide concentration normalized to a 1 mg dose (Dog 3, 15 min): 0 pg/mL; plasma peptide concentration normalized to a 1 mg dose (Dog 3, 30 min): 0 pg/mL; plasma peptide concentration normalized to a 1 mg dose (Dog 3, 45 min): 0 pg/mL; plasma peptide concentration normalized to a 1 mg dose (Dog 3, 60 min): 0 pg/mL
